Assay results reported in patent US11890348B2, “Localized delivery of anti-fugetactic agent for treatment of cancer” (THE GENERAL HOSPITAL CORPORATION, priority 2015, dated 2024).

Legend:
human CD3 T cells = conditions: T cells incubated with 0.01 μM to 10 mM AMD3100 before addition to the chamber; harvest after 3 h
Protocol: For quantitative transmigration assays, purified human CD3′ T cells (approximately 2×10^4 cells) are added to the upper chamber of a Transwell®, insert in each well, to a total volume of 150 μl of Iscove's modified medium.
To determine the anti-fugetactic concentration of AMD3100, the T cells are incubated with 0.01 μM to 10 mM AMD3100 prior to addition to the chamber.
Cells are harvested from the lower chamber after 3 h, and cell counts are performed using a hemocytometer.

human CD3+ T cells = test system: human CD3+ T cells
Protocol: Freshly prepared and purified human CD3^+ T cells were prepared from healthy donor peripheral blood. 20,000 T cells were loaded into the upper chamber of the Transwell in control, chemotactic or fugetactic settings with AMD3100 at concentrations between 0.1 μM and 10 μM. Migrated cells were counted in the lower chamber and migration quantitated as previously described. Vianello et al. The Journal of Immunology, 2006, 176: 2902-2914; Righi et al., Cancer Res.; 71(16): 5522-34, each of which is incorporated herein in its entirety.
All wells were run in triplicate.

**Q.** `c1cc(CN2CCCNCCNCCCNCC2)ccc1CN1CCCNCCNCCCNCC1` [AMD3100] was tested. Which “effect on T cell migration (anti-fugetactic at lower, fugetactic at higher concentrations)” value (human CD3 T cells) did it give?
**A.** bimodal effect

**Q.** And the “effect on human T cell chemotaxis” value (human CD3+ T cells; FIG. 1, AMD3100 0.1 μM to 10 μM)?
**A.** bimodal effect

**Q.** And the “effect on human T cell fugetaxis” value (human CD3+ T cells; FIG. 2, AMD3100 0.1 μM to 10 μM, antifugetactic properties observed in a specific range)?
**A.** bimodal effect

**Q.** And the “chemotactic index (CI), chemotactic response” value (human CD3+ T cells; chemotactic setting, AMD3100 at 1 μM, CI of 1.0 is the control, FIG. 1, triplicate wells)?
**A.** 2.3

**Q.** What about the “chemotactic index (CI), fugetactic response” value (human CD3+ T cells; fugetactic setting, AMD3100 at 0.1 μM, CI of 1.0 is the control, FIG. 2, triplicate wells) of the same compound?
**A.** 1.6
